We go through 2 compounds from ChEMBL document CHEMBL2331376, “Ridaifen B, a tamoxifen derivative, directly binds to Grb10 interacting GYF protein 2” (Bioorg Med Chem, 2013).

By Kd is commonly meant the free concentration of one partner at which half of the binding sites on the other are occupied at equilibrium, for simple one-to-one binding.

Active and inactive are the calls of the source. The rule behind the calls is not given here.

In test [1] the target is T1, GRB10-interacting GYF protein 2 (Homo sapiens) (UniProt Q6Y7W6).
T1 sequence (whole entry): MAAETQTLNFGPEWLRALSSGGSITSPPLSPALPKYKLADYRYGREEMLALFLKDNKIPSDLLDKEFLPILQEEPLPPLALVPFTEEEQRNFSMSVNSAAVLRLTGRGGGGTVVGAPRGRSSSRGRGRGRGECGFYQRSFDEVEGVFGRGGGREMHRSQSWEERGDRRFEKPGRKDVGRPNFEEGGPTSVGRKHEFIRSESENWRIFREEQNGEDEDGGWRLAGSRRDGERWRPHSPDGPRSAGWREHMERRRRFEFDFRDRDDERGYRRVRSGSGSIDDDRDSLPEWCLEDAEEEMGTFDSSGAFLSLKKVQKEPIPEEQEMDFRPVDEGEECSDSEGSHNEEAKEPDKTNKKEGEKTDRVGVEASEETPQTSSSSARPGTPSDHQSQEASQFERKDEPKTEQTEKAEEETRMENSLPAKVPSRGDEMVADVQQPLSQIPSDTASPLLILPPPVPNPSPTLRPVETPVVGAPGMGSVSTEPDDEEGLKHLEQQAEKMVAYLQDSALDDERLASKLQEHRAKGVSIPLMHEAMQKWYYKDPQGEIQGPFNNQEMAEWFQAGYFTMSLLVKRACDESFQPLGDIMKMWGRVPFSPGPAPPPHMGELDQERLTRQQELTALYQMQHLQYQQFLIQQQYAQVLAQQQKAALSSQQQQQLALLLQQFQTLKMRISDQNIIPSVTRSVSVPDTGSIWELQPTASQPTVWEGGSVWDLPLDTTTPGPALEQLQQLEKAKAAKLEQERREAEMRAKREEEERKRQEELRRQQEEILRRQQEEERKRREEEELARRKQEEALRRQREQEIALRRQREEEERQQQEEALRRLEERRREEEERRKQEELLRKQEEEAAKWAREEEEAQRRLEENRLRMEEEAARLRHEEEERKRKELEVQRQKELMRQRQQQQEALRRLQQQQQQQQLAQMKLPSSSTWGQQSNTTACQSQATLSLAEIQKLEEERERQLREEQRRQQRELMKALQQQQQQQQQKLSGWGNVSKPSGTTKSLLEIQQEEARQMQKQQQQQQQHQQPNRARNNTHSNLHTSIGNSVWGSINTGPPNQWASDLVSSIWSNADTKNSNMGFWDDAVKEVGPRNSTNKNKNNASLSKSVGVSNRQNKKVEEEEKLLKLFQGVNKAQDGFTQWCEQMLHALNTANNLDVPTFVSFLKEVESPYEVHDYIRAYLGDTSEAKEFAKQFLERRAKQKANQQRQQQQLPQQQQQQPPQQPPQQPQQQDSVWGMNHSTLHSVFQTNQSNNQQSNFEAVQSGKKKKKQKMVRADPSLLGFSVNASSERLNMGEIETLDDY
Description: (§1) Binding affinity to recombinant His-tagged Grb10 interacting GYF protein 2 (745-1030 amino acids) (unknown origin) by surface plasmon resonance analysis. (Surface plasmon resonance follows binding to a sensor surface in real time, without labels.)

The target in test [2] is T1, GRB10-interacting GYF protein 2 (Homo sapiens). The test is described as follows: Binding affinity to Flag-tagged Grb10 interacting GYF protein 2 (unknown origin) expressed in HEK293T cells by Western blotting method based pull-down assay. The following applies: HEK-293T. In kind it is cell-based. (In general: A western blot detects proteins with antibodies after separation by electrophoresis.)

The target is the same in test [3]. The test is described as follows: Binding affinity to Grb10 interacting GYF protein 2 in human Jurkat cells using 10 uM compound immobilized on streptavidin-coated wells by T7 phase display screening method. In kind it is cell-based.
The target in test [4] is T2, GRB10-interacting GYF protein 2 (Homo sapiens, UniProt Q6Y7W6).
T2 sequence (Q6Y7W6 whole entry): T1 sequence (whole entry)
The description is as §1.

On to `CCC(=C(c1ccc(OCCN2CCOCC2)cc1)c1ccc(OCCN2CCOCC2)cc1)c1cccc(OC(=O)CCCCCNC(=O)CCCC[C@@H]2SC[C@@H]3NC(=O)N[C@@H]32)c1`, for which the result in test [1], in test [2] and in test [3] was inactive.

Take `CCC(=C(c1ccc(OCCN2CCCC2)cc1)c1ccc(OCCN2CCCC2)cc1)c1cccc(OC(=O)CCCCCNC(=O)CCCC[C@@H]2SC[C@@H]3NC(=O)N[C@@H]32)c1`: the Kd in test [4] came out at 0.186 µM. Besides, the Activity result in test [1] was “Dose-dependent effect”. In addition, the outcome in test [2] and in test [3] was Active.
